{"source": "patent US20260242478A1", "about": "“ANTIBODIES FOR TARGETING PSMA AND CD28 AND USES THEREOF” (Janux Therapeutics, Inc., priority 2023, published 2026)", "key": {"[1]": {"biological_target": "PSMA Fab (SEQ ID NOs: 19, 20)", "test": "PSMA Fab binding to peptides, ELISA", "details": "for EC50 / Binding EC50: PSMA Fab binding to biotinylated peptide, ELISA", "description": "Peptides of Table 9 were evaluated for their ability to bind to PSMA Fab in a standard enzyme linked immunosorbent assay (ELISA) format. […] PSMA Fab diluted in buffer was then added to the peptide captured plates. Bound antibody was detected using a standard horse radish peroxidase conjugate secondary antibody."}, "[2]": {"biological_target": "PSMA Fab (SEQ ID NOs: 19, 20) binding to the PSMA antigen", "test": "Inhibition of PSMA Fab binding to PSMA by peptides, competition ELISA (incl. alanine scanning)", "details": "PSMA Fab fixed at 0.3 nM, peptide 0-100 μM", "description": "PSMA Fab fixed at 0.3 nanomolar (nM) concentration was pre-incubated with 0-100 micromolar (μM) titrated peptides. After a short pre-incubation period, the mixture of titrated peptide with fixed PSMA Fab were added to the PSMA antigen coated plates. After a short incubation on the plates, bound PSMA Fab was detected with a standard horse radish peroxidase conjugated secondary antibody.\nThe tables also designate each alanine mutation as tolerant (T), somewhat tolerant (ST), or intolerant (IT) based on changes in binding inhibition ability relative to the non-mutated peptide. Cys-5 and Cys-11 of peptide-179 and peptide-180 were not mutated."}, "[3]": {"biological_target": "anti-CD28 Fab (SEQ ID NOs: 696, 697)", "test": "anti-CD28 Fab binding to peptides, ELISA", "details": "anti-CD28 Fab"}, "[4]": {"biological_target": "anti-CD28 scFv (disulfide) (SEQ ID NO: 10)", "test": "anti-CD28 scFv (disulfide) binding to peptides, ELISA", "details": "Table 27", "description": "Peptides were evaluated for their ability to bind to ant-CD28 Fab (SEQ ID NOs: 696.697) or anti-CD28 scFv (disulfide) (SEQ ID NO: 10) in a standard ELISA format as described above."}, "[5]": {"tested_on": "anti-CD28 Fab (SEQ ID NOs: 696, 697)", "test": "Kinetic binding of peptides to anti-CD28 Fab, BLI", "details": "for kdis / kon: Table 30, BLI"}, "[6]": {"tested_on": "PSMA Fab (SEQ ID NOs: 19, 20)", "test": "Kinetic binding of peptides to PSMA Fab, BLI", "description": "Kinetic binding of the peptides of Table 9 to PSMA Fab (SEQ ID NOs: 19, 20) was evaluated using biolayer interferometry (BLI). Briefly, biotinylated peptides were loaded onto a streptavidin coated Octet® V SAX biosensor, quenched in biocytin, and baselined in buffer. […] After a short association period, sensors were transferred into buffer and the dissociation of bound Ab-1 was measured. Association and dissociation signals were recorded in real time and analyzed using a 1:1 binding model within the instrument software. Analysis using a 1:1 binding model enabled the calculation of the on and off rate constant as well as affinity, Kn."}}, "data": [{"sequence": "SCGWLRGEEFGWWC [Peptide-190]", "values": [{"measurement": "EC50", "setting": "[1]; Table 38", "result": "> 3", "unit": "µM"}, {"measurement": "IC50", "setting": "[2]; Table 38", "result": "> 100", "unit": "µM"}]}, {"sequence": "PDCVYHSFWGYSCR [Peptide-178]", "values": [{"measurement": "EC50", "setting": "[1]; Table 37", "result": "> 1", "unit": "µM"}]}, {"sequence": "WICDKSGSIMLCRA [Peptide-91]", "values": [{"measurement": "EC50", "setting": "[3]; Table 24", "result": "> 1", "unit": "µM"}, {"measurement": "EC50", "setting": "[4]", "result": "> 1", "unit": "µM"}]}, {"sequence": "MEYCSFHRFTCVLW [Peptide-174]", "values": [{"measurement": "EC50", "setting": "[1]; Table 37", "result": "> 1", "unit": "µM"}]}, {"sequence": "YWSCFQIPFTCFYF [Peptide-75]", "values": [{"measurement": "EC50", "setting": "[3]; Table 24", "result": "> 1", "unit": "µM"}, {"measurement": "EC50", "setting": "[4]", "result": "> 1", "unit": "µM"}]}, {"sequence": "YCAGMSTIQLWLKC [Peptide-94]", "values": [{"measurement": "EC50", "setting": "[3]; Table 24", "result": "> 1", "unit": "µM"}, {"measurement": "EC50", "setting": "[4]", "result": "> 1", "unit": "µM"}]}, {"sequence": "IRCVGEGHDLVCIF [Peptide-184]", "values": [{"measurement": "EC50", "setting": "[1]; Table 38", "result": "> 3", "unit": "µM"}, {"measurement": "IC50", "setting": "[2]; Table 38", "result": "> 100", "unit": "µM"}]}, {"sequence": "GCQYPWAFDAMSCP [Peptide-80]", "values": [{"measurement": "EC50", "setting": "[3]; Table 24", "result": "> 1", "unit": "µM"}, {"measurement": "EC50", "setting": "[4]", "result": "> 1", "unit": "µM"}]}, {"sequence": "YECHQGLFHRWCVN [Peptide-158]", "values": [{"measurement": "Binding EC50", "setting": "[1]; Table 37", "result": "high background"}]}, {"sequence": "ACHSLVLKHHLQKC [Peptide-176]", "values": [{"measurement": "EC50", "setting": "[1]; Table 37", "result": "> 1", "unit": "µM"}]}, {"sequence": "SIPCIPRDWLCPIK [Peptide-163]", "values": [{"measurement": "EC50", "setting": "[1]; Table 37", "result": "> 1", "unit": "µM"}]}, {"sequence": "PELRCVPFWMCSFN [Peptide-181]", "values": [{"measurement": "EC50", "setting": "[1]; Table 38", "result": 0.003, "unit": "µM"}]}, {"sequence": "FCGWMDGDVFWFCG [Peptide-171]", "values": [{"measurement": "EC50", "setting": "[1]; Table 37", "result": "> 1", "unit": "µM"}]}, {"sequence": "NCFFAADIHWNFCT [Peptide-169]", "values": [{"measurement": "EC50", "setting": "[1]; Table 37", "result": "> 1", "unit": "µM"}]}, {"sequence": "HLFCWEGSDRCAWV [Peptide-165]", "values": [{"measurement": "EC50", "setting": "[1]; Table 37", "result": "> 1", "unit": "µM"}]}, {"sequence": "YCEGHLPEYIQKCL [Peptide-134]", "values": [{"measurement": "Off rate t½", "setting": "[5]; Table 26", "result": 0.9, "unit": "min"}, {"measurement": "kdis", "setting": "[5]", "result": 0.0115, "unit": "s⁻¹"}]}, {"sequence": "HCLGPALGPVDGDC [Peptide-189]", "values": [{"measurement": "EC50", "setting": "[1]; Table 38", "result": "> 3", "unit": "µM"}, {"measurement": "IC50", "setting": "[2]; Table 38", "result": "> 100", "unit": "µM"}]}, {"sequence": "YCEGHLPEYIEKCL [Peptide-120]", "values": [{"measurement": "EC50", "setting": "[3]; Table 26", "result": 0.0031, "unit": "µM"}, {"measurement": "kdis", "setting": "[5]", "result": 0.0239, "unit": "s⁻¹"}, {"measurement": "kon", "setting": "[5]", "result": 25800, "unit": "M⁻¹ s⁻¹"}]}, {"sequence": "IAVLCQPNWMCAGF [Peptide-180]", "values": [{"measurement": "binding to the PSMA Fab", "setting": "[1]", "result": "strong binding"}, {"measurement": "EC50", "setting": "[1]; Table 38", "result": 0.033, "unit": "µM"}, {"measurement": "Off rate t1/2", "setting": "[6]; Table 38, 1:1 binding model", "result": "<1", "unit": "min"}, {"measurement": "Off rate t1/2", "setting": "[6]; Table 39, 1:1 binding model", "result": 0.75, "unit": "min"}]}, {"sequence": "YCEGHLPEYRNKCL [Peptide-132]", "values": [{"measurement": "EC50", "setting": "[3]; Table 26", "result": 0.0032, "unit": "µM"}, {"measurement": "kdis", "setting": "[5]", "result": 0.0138, "unit": "s⁻¹"}]}, {"sequence": "YWYCSPSIVRCVLV [Peptide-89]", "values": [{"measurement": "EC50", "setting": "[3]; Table 24", "result": "> 1", "unit": "µM"}, {"measurement": "EC50", "setting": "[4]", "result": "> 1", "unit": "µM"}]}, {"sequence": "WCWYYREWVPMTCP [Peptide-88]", "values": [{"measurement": "EC50", "setting": "[3]; Table 24", "result": "> 1", "unit": "µM"}, {"measurement": "EC50", "setting": "[4]", "result": "> 1", "unit": "µM"}]}, {"sequence": "PDCHTILFKPWCVR [Peptide-90]", "values": [{"measurement": "EC50", "setting": "[3]; Table 24", "result": "> 1", "unit": "µM"}, {"measurement": "EC50", "setting": "[4]", "result": "> 1", "unit": "µM"}]}, {"sequence": "FCQWIEATNAWLCY [Peptide-170]", "values": [{"measurement": "EC50", "setting": "[1]; Table 37", "result": "> 1", "unit": "µM"}]}, {"sequence": "YCEGHLPEYLAKCL [Peptide-127]", "values": [{"measurement": "EC50", "setting": "[3]; Table 26", "result": 0.0017, "unit": "µM"}, {"measurement": "kdis", "setting": "[5]", "result": 0.0118, "unit": "s⁻¹"}]}, {"sequence": "YECHQGLFHRWCVN [Peptide-185]", "values": [{"measurement": "EC50", "setting": "[1]; Table 38", "result": "> 3", "unit": "µM"}]}, {"sequence": "IRCVGEGHDLVCIF [Peptide-162]", "values": [{"measurement": "EC50", "setting": "[1]; Table 37", "result": "> 1", "unit": "µM"}]}, {"sequence": "DCFYAADIHWNYCN [Peptide-157]", "values": [{"measurement": "EC50", "setting": "[1]; Table 37", "result": "> 1", "unit": "µM"}]}, {"sequence": "WCWDYKLWVPTQCP [Peptide-81]", "values": [{"measurement": "EC50", "setting": "[3]; Table 24", "result": "> 1", "unit": "µM"}, {"measurement": "EC50", "setting": "[4]", "result": "> 1", "unit": "µM"}]}, {"sequence": "HCKFHDYHSWYMCY [Peptide-175]", "values": [{"measurement": "EC50", "setting": "[1]; Table 37", "result": "> 1", "unit": "µM"}]}, {"sequence": "MCQWDKINYWMDCD [Peptide-205]", "values": [{"measurement": "Off rate t1/2", "setting": "[6]; Table 39, 1:1 binding model", "result": "<1", "unit": "min"}]}, {"sequence": "YCEGHAPEYIAKCL [Peptide-121]", "values": [{"measurement": "EC50", "setting": "[3]; Table 26", "result": 0.0071, "unit": "µM"}, {"measurement": "kdis", "setting": "[5]", "result": 0.028, "unit": "s⁻¹"}, {"measurement": "kon", "setting": "[5]", "result": 33700, "unit": "M⁻¹ s⁻¹"}]}, {"sequence": "SIPCIPRDWLCPIK [Peptide-182]", "values": [{"measurement": "EC50", "setting": "[1]; Table 38", "result": "> 3", "unit": "µM"}, {"measurement": "IC50", "setting": "[2]; Table 38", "result": "> 100", "unit": "µM"}]}, {"sequence": "ICQWIGATNAWVCY [Peptide-164]", "values": [{"measurement": "Binding EC50", "setting": "[1]; Table 37", "result": "high background"}, {"measurement": "IC50", "setting": "[2]; Table 37", "result": "> 100", "unit": "µM"}]}, {"sequence": "SCGWLRGEEFGWWC [Peptide-177]", "values": [{"measurement": "EC50", "setting": "[1]; Table 37", "result": "> 1", "unit": "µM"}]}, {"sequence": "IECAYMTDQRFWCW [Peptide-188]", "values": [{"measurement": "EC50", "setting": "[1]; Table 38", "result": "> 3", "unit": "µM"}]}, {"sequence": "QCTWNEKTWWMECE [Peptide-204]", "values": [{"measurement": "Off rate t1/2", "setting": "[6]; Table 39, 1:1 binding model", "result": "<1", "unit": "min"}]}, {"sequence": "FGHCAGSPVFCAYW [Peptide-168]", "values": [{"measurement": "EC50", "setting": "[1]; Table 37", "result": "> 1", "unit": "µM"}]}]}
